Values after ≈ are worked out from the molar mass of the structure shown.
Experiments:
Assay in all cases: MIC, broth microdilution
Type in all cases: cell-based
[1] = test system: S. aureus ATCC; settings: Staphylococcus aureus, MHB, 1 × 10^6 CFU/ml, 16–18 h, 37°C, independent triplicates
Method: (§1) The MIC of BMAP‐27B and other antibiotics was determined using the broth microdilution method, following the guidelines established by the Clinical and Laboratory Standards Institute (CLSI). Briefly, the bacterial cultures were grown to the logarithmic growth phase and subsequently diluted in Mueller–Hinton broth (MHB) to achieve a final concentration of 1 × 10^6 CFU/ml. BMAP‐27B and the other antibiotics were prepared in twofold serial dilutions in MHB and mixed with an equal volume of bacterial suspension in 96‐well polypropylene microtiter plates.

[2] = test system: PREC3; settings: Escherichia coli, MHB, 1 × 10^6 CFU/ml, 16–18 h, 37°C, independent triplicates
Method: as §1

[3] = test system: CREC3; settings: Escherichia coli, MHB, 1 × 10^6 CFU/ml, 16–18 h, 37°C, independent triplicates
Method: as §1

[4] = test system: CREC4; settings: Escherichia coli, MHB, 1 × 10^6 CFU/ml, 16–18 h, 37°C, independent triplicates
Method: as §1

[5] = test system: En. faecium (Clinical; MDR; pig, faeces), lower row; settings: Enterococcus faecium, En. faecium clinical MDR isolate, MHB, 16–18 h, 37°C, independent triplicates
Method: as §1

[6] = test system: CREC1; settings: Escherichia coli, MHB, 1 × 10^6 CFU/ml, 16–18 h, 37°C, independent triplicates
Method: as §1

[7] = test system: P. aeruginosa UCBPP-PA14; settings: Pseudomonas aeruginosa, MHB, 1 × 10^6 CFU/ml, 16–18 h, 37°C, independent triplicates
Method: as §1

[8] = test system: CREC2; settings: Escherichia coli, MHB, 1 × 10^6 CFU/ml, 16–18 h, 37°C, independent triplicates
Method: as §1

[9] = test system: En. faecium (Clinical; MDR; pig, faeces), upper row; settings: Enterococcus faecium, En. faecium clinical MDR isolate, MHB, 16–18 h, 37°C, independent triplicates
Method: as §1

[10] = test system: CRAB2; settings: Acinetobacter baumannii, MHB, 1 × 10^6 CFU/ml, 16–18 h, 37°C, independent triplicates
Method: as §1

[11] = test system: PREC2; settings: Escherichia coli, MHB, 1 × 10^6 CFU/ml, 16–18 h, 37°C, independent triplicates
Method: as §1

[12] = test system: CRAB1; settings: Acinetobacter baumannii, MHB, 1 × 10^6 CFU/ml, 16–18 h, 37°C, independent triplicates
Method: as §1

[13] = test system: PREC1; settings: Escherichia coli, MHB, 1 × 10^6 CFU/ml, 16–18 h, 37°C, independent triplicates
Method: as §1

[14] = test system: CREC6; settings: Escherichia coli, MHB, 1 × 10^6 CFU/ml, 16–18 h, 37°C, independent triplicates
Method: as §1

[15] = test system: Salmonella SL1344; settings: MHB, 1 × 10^6 CFU/ml, 16–18 h, 37°C, independent triplicates
Method: as §1

[16] = test system: CRKP1; settings: Klebsiella pneumoniae, MHB, 1 × 10^6 CFU/ml, 16–18 h, 37°C, independent triplicates
Method: as §1

[17] = test system: CRKP2; settings: Klebsiella pneumoniae, MHB, 1 × 10^6 CFU/ml, 16–18 h, 37°C, independent triplicates
Method: as §1

[18] = test system: CRCB3; settings: Citrobacter, MHB, 1 × 10^6 CFU/ml, 16–18 h, 37°C, independent triplicates
Method: as §1

[19] = test system: CRCB1; settings: Citrobacter, MHB, 1 × 10^6 CFU/ml, 16–18 h, 37°C, independent triplicates
Method: as §1

[20] = test system: PRCB1; settings: Citrobacter, MHB, 1 × 10^6 CFU/ml, 16–18 h, 37°C, independent triplicates
Method: as §1

[21] = test system: P. aeruginosa UCBPP-PA01; settings: Pseudomonas aeruginosa, UCBPPPA01, MHB, 1 × 10^6 CFU/ml, 16–18 h, 37°C, independent triplicates
Method: as §1

[22] = test system: CREC5; settings: Escherichia coli, MHB, 1 × 10^6 CFU/ml, 16–18 h, 37°C, independent triplicates
Method: as §1

[23] = test system: CRKP6; settings: Klebsiella pneumoniae, MHB, 1 × 10^6 CFU/ml, 16–18 h, 37°C, independent triplicates
Method: as §1

[24] = test system: CRKP4; settings: Klebsiella pneumoniae, MHB, 1 × 10^6 CFU/ml, 16–18 h, 37°C, independent triplicates
Method: as §1

[25] = test system: CREC7; settings: Escherichia coli, MHB, 1 × 10^6 CFU/ml, 16–18 h, 37°C, independent triplicates
Method: as §1

[26] = test system: CRKP3; settings: Klebsiella pneumoniae, MHB, 1 × 10^6 CFU/ml, 16–18 h, 37°C, independent triplicates
Method: as §1

[27] = test system: CRKP5; settings: Klebsiella pneumoniae, MHB, 1 × 10^6 CFU/ml, 16–18 h, 37°C, independent triplicates
Method: as §1

[28] = test system: CRCB2; settings: Citrobacter, MHB, 1 × 10^6 CFU/ml, 16–18 h, 37°C, independent triplicates
Method: as §1

Row | Structure (SMILES) | MIC [1] [µg/mL] | MIC [2] [µg/mL] | MIC [3] [µg/mL] | MIC [4] [µg/mL] | MIC [5] [µg/mL] | MIC [6] [µg/mL] | MIC [7] [µg/mL] | MIC [8] [µg/mL] | MIC [9] [µg/mL] | MIC [10] [µg/mL] | MIC [11] [µg/mL] | MIC [12] [µg/mL] | MIC [13] [µg/mL] | MIC [14] [µg/mL] | MIC [15] [µg/mL] | MIC [16] [µg/mL] | MIC [17] [µg/mL] | MIC [18] [µg/mL] | MIC [19] [µg/mL] | MIC [20] [µg/mL] | also measured
1 | CNC(C)C1CCC(N)C(OC2C(N)CC(N)C(OC3OCC(C)(O)C(NC)C3O)C2O)O1 (centres unmarked) [GEN, gentamicin] | 2 (≈ 4.19 µM) | 2 (≈ 4.19 µM) | > 32 | > 32 | 32 (≈ 67 µM) | > 32 | 2 (≈ 4.19 µM) | > 32 | 8 (≈ 16.8 µM) | > 32 | > 32 | > 32 | > 32 | > 32 | 4 (≈ 8.38 µM) |  |  |  |  |  | 
2 | CC(C)(O/N=C(\C(=O)N[C@@H]1C(=O)N2C(C(=O)[O-])=C(C[n+]3ccccc3)CS[C@H]12)c1csc(N)n1)C(=O)O [CAZ, ceftazidime] | 4 (≈ 7.32 µM) | 16 (≈ 29.3 µM) | > 32 | > 32 | > 32 | > 32 | 2 (≈ 3.66 µM) | > 32 | > 32 | > 32 | > 32 | > 32 | > 32 | > 32 | < 1 | > 32 | > 32 | > 32 | > 32 | > 32 | MIC [21]: 2 µg/mL (≈ 3.66 µM); MIC [22]: > 32 µg/mL; MIC [23]: > 32 µg/mL; MIC [24]: > 32 µg/mL; MIC [25]: > 32 µg/mL; MIC [26]: > 32 µg/mL; MIC [27]: > 32 µg/mL; MIC [28]: > 32 µg/mL
3 | CN(C)[C@@H]1C(O)=C(C(N)=O)C(=O)[C@@]2(O)C(O)=C3C(=O)c4c(O)cccc4[C@@](C)(O)[C@H]3C[C@@H]12 [TET, tetracycline] | < 1 | > 32 | > 32 | > 32 | > 32 | > 32 | 16 (≈ 36 µM) | > 32 | > 32 | > 32 | > 32 | > 32 | > 32 | > 32 | 4 (≈ 9 µM) | > 32 | > 32 | > 32 | > 32 | > 32 | MIC [21]: 16 µg/mL (≈ 36 µM); MIC [22]: > 32 µg/mL; MIC [23]: 32 µg/mL (≈ 72 µM); MIC [24]: > 32 µg/mL; MIC [25]: > 32 µg/mL; MIC [26]: > 32 µg/mL; MIC [27]: > 32 µg/mL; MIC [28]: > 32 µg/mL
